Results published in patent US20230365691A1, “USE OF ANTI-PD-1 ANTIBODY IN TREATMENT OF NASOPHARYNGEAL CARCINOMA” (SHANGHAI JUNSHI BIOSCIENCES CO., LTD., priority 2020, published 2023).
Read-outs that look alike come from different tables or passages of the source.

Tests used:
[1] = Immunogenicity: anti-drug antibodies (ADAs) in the phase II trial; format: in vivo, human
Text: Anti-drug antibodies (ADAs) were detected in 190 patients. Seven cases (3.7%) were positive for ADA, including four consecutive positive samples.

[2] = test system: recurrent or metastatic nasopharyngeal carcinoma patient; test: Single-arm phase II clinical trial of toripalimab: anti-tumour activity by RECIST v1.1 / irRECIST; format: in vivo, human
Procedure: Test drug: anti-PD-1 antibody toripalimab (WO 2014206107).
The subjects were evaluated every 8 weeks for the first year and every 12 weeks thereafter according to RECIST v1.1 and the Immune-Related Response Evaluation Criteria in Solid Tumour (irRECIST). The subjects were evaluated every 3 months after drug discontinuance.
This was a single-arm, phase II, open-label clinical trial. This study was conducted to evaluate the safety and anti-tumour activity of an anti-PD-1 antibody in treatment of a recurrent or metastatic nasopharyngeal carcinoma patient.

[3] = test system: recurrent or metastatic nasopharyngeal carcinoma patient; details: human, in vivo
Text: Inclusion criteria: eligible subjects must (1) be 18 years old or older, (2) have recurrent or metastatic nasopharyngeal carcinoma, (3) be refractory to standard systemic therapy or have progressive disease after 6 months of radiotherapy and chemotherapy, (4) have an ECOG score of 0 or 1, (5) have the normal organ function within 10 days […] treatment, (6) have no history of autoimmune diseases or other malignant cancers, and (7) have not received any anti-PD-1/or anti-PD-L1 immunotherapy before.
Subjects must have an evaluable lesion according to RECIST v 1.1, have not received anti-tumour monoclonal antibody drug treatment within 4 weeks before treatment, have not received any anti-tumour drug treatment within 2 weeks before treatment, and have not received systemic steroid drug treatment within 7 days before treatment.
From Dec. 22, 2016 to Feb. 19, 2019, a total of 279 patients with recurrent or metastatic NPC were screened from 17 centres in Chinese mainland, and 190 patients were enrolled in this study. […] Of the two histological subtypes, 182 patients (95.8%) had non-keratinizing NPC and 8 patients (4.2%) had keratinizing NPC. There were 116 patients (61.1%) who had received at least two kinds of systemic therapy.
Test drug: anti-PD-1 antibody toripalimab (WO 2014206107). […]

[4] = test system: recurrent or metastatic nasopharyngeal carcinoma patient; format: in vivo, human
Procedure: The PD-L1 expression status in tumour biopsies was determined by SP142 IHC staining, with tumour proportion score (TPS) > 1% being determined as positive.
Tumour biopsy tissues and matched peripheral blood samples from subjects were subjected to whole exome sequencing (WES) to identify tumour-specific mutations. […] In this study, the top 10% or 20% cut-off values of TMB (2.9 Muts/Mb and 2.0 Muts/Mb, respectively) were selected for evaluation of clinical response.
The correlation between genomic changes and clinical efficacy was analysed.
Plasma was collected from patients before administration, and the number of copies of EBV DNA was analysed by qRT-PCR once every 4 weeks.

[5] = Investigator, RECIST1.1, n = 190
[6] = Investigator, irRECIST, n = 190
[7] = at least two prior treatments (n = 116)
[8] = keratinizing versus non-keratinizing NPC

toripalimab
cases positive for ADA ([1]; 190 patients): 3.7% | difference in incidence of AEs, SAEs and AEs of grade 3 or above, drug discontinuance or dose delay, and clinical efficacy ([1]; between ADA positive and negative patients): no significant difference | CR ([2]; IRC, RECIST1.1, n = 190): 5 (2.6%) | NE ([2]; IRC, RECIST1.1, n = 190): 28 (14.7%) | PD ([2]; IRC, RECIST1.1, n = 190): 86 (45.3%) | PR ([2]; IRC, RECIST1.1, n = 190): 34 (17.9%) | CR ([2]; IRC, RECIST v1.1, 190 patients): 5 cases | PR ([2]; IRC, RECIST v1.1, 190 patients): 34 cases | CR ([2]; IRC, irRECIST, n = 190): 5 (2.6%) | NE ([2]; IRC, irRECIST, n = 190): 28 (14.7%) | PD ([2]; IRC, irRECIST, n = 190): 71 (37.4%) | PR ([2]; IRC, irRECIST, n = 190): 34 (17.9%) | ORR ([2]; IRC, keratinizing NPC (n = 8)): 62.5% | ORR ([2]; IRC, non-keratinizing NPC (n = 182)): 18.7% | CR [2, 5]: 5 (2.6%) | DCR (%) [2, 5]: 88 (46.3%) | NE [2, 5]: 24 (12.6%) | ORR (%) [2, 5]: 40 (21.1%) | PD [2, 5]: 78 (41.1%) | PR [2, 5]: 35 (18.4%) | CR [2, 6]: 5 (2.6%) | DCR (%) [2, 6]: 103 (54.2%) | NE [2, 6]: 28 (14.7%) | ORR (%) [2, 6]: 44 (23.2%) | PD [2, 6]: 59 (31.1%) | PR [2, 6]: 39 (20.5%) | median DOR ([2]; all subjects): 12.8 months | median overall survival (mOS) ([2]; all subjects): 17.4 months | median progression-free survival (mPFS) ([2]; all subjects): 1.9 months | median time to response ([2]; all subjects): 1.8 months | patients who had died ([2]; as of Feb. 19, 2020, 190 patients): 49.5% | mOS [2, 7]: 15.1 months | mPFS [2, 7]: 2.0 months | median DOR [2, 7]: 21.5 months | OS ([2]; keratinizing NPC): not reached | PFS ([2]; keratinizing NPC): 16.6 months | HR for OS [2, 8]: 0.51 | HR for PFS [2, 8]: 0.46 | subjects who had reductions in target lesions relative to baseline ([2]; n = 190): 38.4% | subjects with a reduction greater than or equal to 30% in target lesions from baseline ([2]; n = 190): 25.3% | OS ([2]; non-keratinizing NPC): 15.1 months | PFS ([2]; non-keratinizing NPC): 1.9 months | ORR ([2]; patients who had received at least two prior treatments (n = 116)): 21.6% | median OS ([2]; subjects experiencing objective response (n = 39) or stable disease (n = 38)): not reached | median OS ([2]; subjects with progressive disease (n = 113)): 8.4 months | patients subjected to dose interruption due to TRAEs [3]: 3.7% | PFS ([4]; 10% of patients with the highest TMB value, similar to the 90% with the lowest TMB value): 1.9 months | ORR ([4]; 11 patients with genome amplification of CCND1 and/or FGF14, FGF3 or FGF4 chromosome 11q13 region): 0% | median time of at least 2-fold increase in plasma EBV DNA copies prior to imaging-confirmed progressive disease ([4]; 14 patients who experienced progressive disease): 3 months | ORR ([4]; 19 patients with ETV6 mutations): 5.3% | ORR ([4]; PD-L1+ patients): 27.1% | ORR ([4]; PD-L1- patients): 19.4% | mOS ([4]; PD-L1 > 25%): not reached | mPFS ([4]; PD-L1 > 25%): 7.2 months | HR for OS ([4]; PD-L1 > 25% versus ≤ 25%): 0.57 | HR for PFS ([4]; PD-L1 > 25% versus ≤ 25%): 0.64 | mPFS ([4]; PD-L1 ≤ 25%): 1.9 months | ORR ([4]; at least 2-fold decrease in plasma EBV DNA copies on day 28 (n = 60)): 48.3% | ORR ([4]; baseline EBV titre < 10000 IU/mL): 26.7% | ORR ([4]; baseline EBV titre ≥ 10000 IU/mL): 15.4% | OS ([4]; high TMB patients): 9.2 months | ORR ([4]; less than 2-fold decrease in plasma EBV DNA copies on day 28 (n = 88)): 5.7% | OS ([4]; low TMB patients): 17.4 months | ORR ([4]; patients with PD-L1 > 25%): 38.1% | ORR ([4]; patients with PD-L1 ≤ 25%): 19.3% | median decrease in the number of copies of EBV DNA in plasma from baseline to the nadir ([4]; patients with objective response (n = 34)): 31 fold | change in the number of copies of EBV DNA in plasma from baseline ([4]; patients with progressive disease (n = 80)): no change | decrease in the number of copies of EBV DNA in plasma from baseline to the nadir ([4]; patients with stable disease (n = 35)): 3 fold | ORR ([4]; top 10% of patients by TMB (cut-off 2.9 Muts/Mb)): 17.6% | ORR ([4]; top 20% of patients by TMB (cut-off 2.0 Muts/Mb)): 14.3%
